Data taken from patent US20030139431A1 (priority 2001, published 2003).

What was measured:
rNPFF2 [1] = biological target: T1, rNPFF2 (Rattus norvegicus, UniProt Q9EQD2); test: Binding affinity at cloned recombinant rat NPFF2 receptor
T1 construct: expressed in transfected cells

rNPFF1 [2] = biological target: T2, rNPFF1 (Rattus norvegicus, UniProt Q9EP86); test: Functional assay (agonist potency, intrinsic activity) at cloned rat NPFF1 receptor; type: cell-based; details: for rNPFF1 IA (intrinsic activity): percent of maximum response elicited by neuropeptide FF, rat NPFF1; for EC50: recombinant rat NPFF1
T2 construct: expressed in transfected cells
Procedure: (§1) Intrinsic activity of a compound is measured as the percent of maximum response.

rNPFF1 [3] = biological target: T2, rNPFF1; test: Binding affinity at cloned recombinant rat NPFF1 receptor
rNPFF2 [4] = biological target: T1, rNPFF2; test: Functional assay (agonist potency, intrinsic activity) at cloned rat NPFF2 receptor; type: cell-based; details: for rNPFF2 IA (intrinsic activity): percent of maximum response elicited by neuropeptide FF, rat NPFF2; for EC50: recombinant rat NPFF2
Procedure: as §1

T1 sequence (Q9EQD2 whole entry): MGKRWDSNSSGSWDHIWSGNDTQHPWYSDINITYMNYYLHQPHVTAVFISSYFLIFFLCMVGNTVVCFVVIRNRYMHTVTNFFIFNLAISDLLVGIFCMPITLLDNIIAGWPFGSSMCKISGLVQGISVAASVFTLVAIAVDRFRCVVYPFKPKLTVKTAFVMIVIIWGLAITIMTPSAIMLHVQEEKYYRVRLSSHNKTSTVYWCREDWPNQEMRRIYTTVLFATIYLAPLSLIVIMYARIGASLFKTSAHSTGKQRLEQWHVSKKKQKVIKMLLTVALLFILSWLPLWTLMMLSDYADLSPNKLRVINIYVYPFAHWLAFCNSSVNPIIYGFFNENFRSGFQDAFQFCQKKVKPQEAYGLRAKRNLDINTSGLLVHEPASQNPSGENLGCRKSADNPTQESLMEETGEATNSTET
T2 sequence (Q9EP86 whole entry): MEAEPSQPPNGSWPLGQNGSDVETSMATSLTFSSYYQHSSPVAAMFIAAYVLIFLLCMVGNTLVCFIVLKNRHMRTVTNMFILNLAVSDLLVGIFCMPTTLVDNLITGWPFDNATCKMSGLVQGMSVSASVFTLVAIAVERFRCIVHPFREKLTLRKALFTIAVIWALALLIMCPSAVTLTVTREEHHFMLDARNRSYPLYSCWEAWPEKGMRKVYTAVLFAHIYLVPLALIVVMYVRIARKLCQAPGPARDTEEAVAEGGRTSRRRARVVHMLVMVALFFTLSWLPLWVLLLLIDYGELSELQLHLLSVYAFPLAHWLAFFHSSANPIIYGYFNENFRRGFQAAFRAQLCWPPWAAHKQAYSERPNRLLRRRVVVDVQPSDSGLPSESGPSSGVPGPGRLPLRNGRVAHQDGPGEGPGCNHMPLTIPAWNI

| SMILES | Ki (rNPFF2 [1]) | rNPFF1 IA (intrinsic activity) (rNPFF1 [2]) | EC50 (rNPFF1 [2]) | Ki (rNPFF1 [3]) | rNPFF2 IA (intrinsic activity) (rNPFF2 [4]) | EC50 (rNPFF2 [4]) |
| --- | --- | --- | --- | --- | --- | --- |
| CCc1ccc2nc(NC(=N)N)nc(C)c2c1 [Compound 1003, N-(6-ethyl-4-methyl-2-quinazolinyl)guanidine] | 1640 nM | Inactive | > 10000 nM | 238 nM | 83% NPFF | 392 nM |
| Cc1nc(NC(=N)N)nc2ccc(C(C)(C)C)cc12 [Compound 1004, N-(6-tert-butyl-4-methyl-2-quinazolinyl)guanidine] | 1490 nM | 36% NPFF | 1470 nM | 710 nM | 90% NPFF | 440 nM |
| Cc1nc(NC(=N)N)nc2ccc(OCCCCCOc3ccccc3)cc12 [Compound 1005, N-4-methyl-6-[(5-phenoxypentyl)oxy]-2-quinazolinylguanidine] | 2140 nM | Inactive | > 10000 nM | 316 nM | 21% NPFF | 3160 nM |
| Cc1nc(NC(=N)N)nc2cc(OCc3ccccc3)ccc12 [Compound 1006, N-[7-(benzyloxy)-4-methyl-2-quinazolinyl]guanidine] | 1070 nM | 15% NPFF | > 10000 nM | 410 nM | 22% NPFF | 1080 nM |
| CCCCOc1ccc2nc(NC(=N)N)nc(C)c2c1 [Compound 1012, N-(6-butoxy-4-methyl-2-quinazolinyl)guanidine] | 4850 nM | Inactive | > 10000 nM | 733 nM | 80% NPFF | 1620 nM |
| Cc1nc(NC(=N)N)nc2cc(Br)ccc12 [Compound 1014, N-(7-bromo-4-methyl-2-quinazolinyl)guanidine] | 3440 nM | Inactive | > 10000 nM | 300 nM | 47% NPFF | 2460 nM |
| Cc1cc2nc(NC(=N)N)nc(C)c2cc1C [Compound 1015, N-(4,6,7-trimethyl-2-quinazolinyl)guanidine] | 1110 nM | Inactive | > 10000 nM | 42 nM | 56% NPFF | 272 nM |
| COc1cc2c(C)nc(NC(=N)N)nc2cc1C [Compound 1016, N-(6-methoxy-4,7-dimethyl-2-quinazolinyl)guanidine] | 2500 nM | Inactive | > 10000 nM | 565 nM | 74% NPFF | 3160 nM |
| Cc1cc2nc(NC(=N)N)nc(C)c2cc1O [Compound 1017, N-(6-hydroxy-4,7-dimethyl-2-quinazolinyl)guanidine] | 5920 nM | Inactive | > 10000 nM | 234 nM | 23% NPFF | > 10000 nM |
| CCCCOc1cc2nc(NC(=N)N)nc(C)c2cc1OCCCC [Compound 1018, N-(6,7-dibutoxy-4-methyl-2-quinazolinyl)guanidine] | 1300 nM | Inactive | > 10000 nM | 303 nM | Inactive | > 10000 nM |
| Cc1nc(NC(=N)N)nc2cc(F)c(F)cc12 [Compound 1019, N-(6,7-difluoro-4-methyl-2-quinazolinyl)guanidine] | 2870 nM | Inactive | > 10000 nM | 57 nM | 31% NPFF | 2540 nM |
| CCc1ccc2c(C)nc(NC(=N)N)nc2c1 [Compound 1020, N-(7-ethyl-4-methyl-2-quinazolinyl)guanidine] | 273 nM | Inactive | > 10000 nM | 18 nM | 90% NPFF | 695 nM |
| Cc1nc(NC(=N)N)nc2cc(C(C)C)ccc12 [Compound 1021, N-(7-isopropyl-4-methyl-2-quinazolinyl)guanidine] | 881 nM | Inactive | > 10000 nM | 56 nM | 76% NPFF | 283 nM |
| CCOc1ccc2c(C)nc(NC(=N)N)nc2c1 [Compound 1024, N-(7-ethoxy-4-methyl-2-quinazolinyl)guanidine] | 5590 nM | Inactive | > 10000 nM | 659 nM | Inactive | > 10000 nM |
| Cc1nc(NC(=N)N)nc2cc(OC(C)C)ccc12 [Compound 1025, N-[4-methyl-7-(isopropoxy)-2-quinazolinyl]guanidine] | 4530 nM | Inactive | > 10000 nM | 253 nM | 27% NPFF | 3160 nM |

More lines, now with the values ahead:

| Ki (rNPFF2 [1]) | rNPFF1 IA (intrinsic activity) (rNPFF1 [2]) | EC50 (rNPFF1 [2]) | Ki (rNPFF1 [3]) | rNPFF2 IA (intrinsic activity) (rNPFF2 [4]) | EC50 (rNPFF2 [4]) | SMILES |
| --- | --- | --- | --- | --- | --- | --- |
| 3920 nM | Inactive | > 10000 nM | 134 nM | 24% NPFF | 5620 nM | Cc1ccc2nc(NC(=N)N)nc(C)c2c1 [Compound 1002, N-(4,6-dimethyl-2-quinazolinyl)guanidine] |
| 1120 nM | Inactive | > 10000 nM | 155 nM | 85% NPFF | 619 nM | CCCc1ccc2nc(NC(=N)N)nc(C)c2c1 [Compound 1008, N-(4-methyl-6-propyl-2-quinazolinyl)guanidine] |
| 703 nM | Inactive | – | 312 nM | 22% NPFF | 5620 nM | CCCCCCCCc1ccc2nc(NC(=N)N)nc(C)c2c1 [Compound 1009, N-(4-methyl-6-octyl-2-quinazolinyl)guanidine] |
| 3480 nM | Inactive | > 10000 nM | 311 nM | 22% NPFF | > 10000 nM | Cc1nc(NC(=N)N)nc2ccc(-c3ccccc3)cc12 [Compound 1010, N-(4-methyl-6-phenyl-2-quinazolinyl)guanidine] |
| > 10000 nM | Inactive | > 10000 nM | 201 nM | Inactive | > 10000 nM | COc1ccc2nc(NC(=N)N)nc(C)c2c1 [Compound 1011, N-(6-methoxy-4-methyl-2-quinazolinyl)guanidine] |
| 2020 nM | Inactive | > 10000 nM | 332 nM | 52% NPFF | 690 nM | Cc1nc(NC(=N)N)nc2ccc(Cl)cc12 [Compound 1013, N-(6-chloro-4-methyl-2-quinazolinyl)guanidine] |
| > 10000 nM | Inactive | > 10000 nM | 802 nM | 19% NPFF | > 10000 nM | Cc1nc(NC(=N)N)nc2ccc(Br)cc12 [Compound 1026, N-(6-bromo-4-methyl-2-quinazolinyl)guanidine] |
